{
  "source": "patent US20090029953A1",
  "about": "“18-METHYL-19-NOR-17-PREGN-4-ENE-21,17-CARBOLACTONES, AS WELL AS PHARMACEUTICAL PREPARATIONS THAT CONTAIN THE LATTER” (priority 2004, published 2009)",
  "tested_on": "ovariectomized pregnant rats",
  "test": "pregnancy maintenance test in rats",
  "assay_type": "in vivo",
  "conditions": "subcutaneous once daily from day 8 of pregnancy, with estrone 5 μg/kg/day",
  "source_text": "Executing the Pregnancy Maintenance Test in Rats:\nIn pregnant rats, removal of the corpora lutea or castration induces abortion. By exogenous supplying of progestins (gestagens) in combination with a suitable dose of estrogen, pregnancy can be maintained. The pregnancy maintenance test in ovariectomized rats serves to determine peripheral gestagenic activity of a compound.\nRats are paired up during the proestrus overnight. Mating is monitored on the morning of the following day by vaginal smear inspection. The presence of sperm is considered in this case as day 1 of the beginning of pregnancy. On day 8 of pregnancy, the animals are ovariectomized under ether anesthesia. […]\nAt the end of the test (day 15 or day 21), the animals are sacrificed under CO2 atmosphere, and live fetuses (fetuses with beating hearts) and implantation sites (early resorptions and dead fetuses including autolysis and atrophic placentas) in both uterine horns are counted. […] In uteri without fetuses or implantation sites, the number of nidation sites is determined by staining with 10% ammonium sulfide solution. The pregnancy maintenance rate is calculated as the quotient of the number of living fetuses and the total number of nidation sites (both resorbed and dead fetuses as well as nidation sites). […]",
  "data": [
    {"smiles": "C[C@]12CCC(=O)C=C1[C@@H]1C[C@@H]1[C@H]1[C@@H]3[C@@H]4C[C@@H]4[C@@]4(CCC(=O)O4)[C@@]3(C)CC[C@@H]12", "note": "[drospirenone, 6β,7β-15β,16β-dimethylene-3-oxo-17-pregn-4-ene-21,17β-carbolactone]", "values": [
      {"measurement": "pregnancy-maintaining dose (ED50)", "result": 3.5, "unit": "mg/kg/day"}
    ]},
    {"smiles": "CCC12CCC3C4CCC(=O)C=C4C4CC4C3C1C1CC1C21CCC(=O)O1", "note": "(stereo not drawn) [compound 3a, 18-Methyl-6α,7α-15β,16β-dimethylene-3-oxo-19-nor-17-pregn-4-ene-21,17-carbolactone]", "values": [
      {"measurement": "pregnancy-maintaining dose (ED50)", "result": 0.12, "unit": "mg/kg/day"}
    ]}
  ]
}
